30 compounds from BindingDB's records for doi:10.1016/j.bmcl.2009.08.049 (Genentech, 2009) can be followed below.

The target in this test is Sonic hedgehog protein (Mus musculus, UniProt Q62226). The experiment in a line: Inhibition of SHH in mouse C3H10T1/2 cells by Gli-luciferase reporter gene assay. (In general: A reporter such as luciferase makes a cellular process visible.)
Chain of Sonic hedgehog protein (Q62226 25-198 limits assumed): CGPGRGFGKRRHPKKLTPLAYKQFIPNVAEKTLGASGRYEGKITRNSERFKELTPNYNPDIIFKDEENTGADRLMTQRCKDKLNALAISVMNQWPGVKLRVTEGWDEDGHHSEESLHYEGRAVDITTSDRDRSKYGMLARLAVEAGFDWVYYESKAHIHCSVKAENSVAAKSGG
The IC50 is the concentration needed to halve the response being measured. High values mean weaker potency, low ones greater potency. Consider `O=C(Nc1ccc(Cl)c(-c2ccccn2)c1)c1ccccc1Cl` [2-chloro-N-(4-chloro-3-(pyridin-2-yl)phenyl)benzamide], for which half-maximal inhibition (IC50) was put at 110 nM.

The compound `O=C(Nc1ccc(Cl)c(-c2ccccn2)c1)c1cccc(Cl)c1` [3-chloro-N-(4-chloro-3-(pyridin-2-yl)phenyl)benzamide] had an IC50 of 1500 nM.

`O=C(Nc1ccc(Cl)c(-c2ccccn2)c1)c1ccc(Cl)cc1` [4-chloro-N-(4-chloro-3-(pyridin-2-yl)phenyl)benzamide] returned an IC50 of 1500 nM.

On to `Cc1nc(C(F)(F)F)ccc1C(=O)Nc1ccc(Cl)c(-c2nc3ccccc3[nH]2)c1` [N-(3-(1H-benzo[d]imidazol-2-yl)-4-chlorophenyl)-2-methyl-6-(trifluoromethyl)nicotinamide], for which the IC50 was determined as 12 nM. This IC50 lies about 120-fold lower than the previous one.

In the case of `Cc1nc(C(F)(F)F)ccc1C(=O)Nc1ccc(Cl)c(-c2nc3ccccc3s2)c1` [N-(3-(benzo[d]thiazol-2-yl)-4-chlorophenyl)-2-methyl-6-(trifluoromethyl)nicotinamide], half-maximal inhibition (IC50) was put at 70 nM.

The compound `Cc1nc(C(F)(F)F)ccc1C(=O)Nc1ccc(Cl)c(-c2nc3ccccc3n2C)c1` [N-(4-chloro-3-(1-methyl-1H-benzo[d]imidazol-2-yl)phenyl)-2-methyl-6-(trifluoromethyl)nicotinamide] displayed an IC50 of 9 nM.

Turning to `Cc1nc(C(F)(F)F)ccc1C(=O)Nc1ccc(Cl)c(-c2ccn(C)n2)c1` [N-(4-chloro-3-(1-methyl-1H-pyrazol-3-yl)phenyl)-2-methyl-6-(trifluoromethyl)nicotinamide], the IC50 was found to be 550 nM. Against the preceding compound, the IC50 is about 61-fold higher.

As to `Cc1nc(C(F)(F)F)ccc1C(=O)Nc1ccc(Cl)c(-c2nc3c(n2C)CCCC3)c1` [N-(4-chloro-3-(1-methyl-4,5,6,7-tetrahydro-1H-benzo[d]imidazol-2-yl)phenyl)-2-methyl-6-(trifluoromethyl)nicotinamide], it took 150 nM to reach half-maximal inhibition (IC50).

Compound `Cc1nc(C(F)(F)F)ccc1C(=O)Nc1ccc(Cl)c(-c2cc3ccccc3[nH]2)c1` [N-(4-chloro-3-(1H-indol-2-yl)phenyl)-2-methyl-6-(trifluoromethyl)nicotinamide] gave an IC50 of 500 nM.

In turn, `Cc1nc(C(F)(F)F)ccc1C(=O)Nc1ccc(Cl)c(-n2cccn2)c1` [N-(4-chloro-3-(1H-pyrazol-1-yl)phenyl)-2-methyl-6-(trifluoromethyl)nicotinamide] came in with an IC50 of 450 nM. This IC50 and that of the compound before are within 1.5-fold of each other.

As to `Cc1nc(C(F)(F)F)ccc1C(=O)Nc1ccc(Cl)c(-c2cc[nH]n2)c1` [N-(4-chloro-3-(1H-pyrazol-3-yl)phenyl)-2-methyl-6-(trifluoromethyl)nicotinamide], half-maximal inhibition (IC50) was put at 9000 nM.

`Cc1nc(C(F)(F)F)ccc1C(=O)Nc1ccc(Cl)c(-n2cc3ccccc3n2)c1` [N-(4-chloro-3-(2H-indazol-2-yl)phenyl)-2-methyl-6-(trifluoromethyl)nicotinamide] came in with an IC50 of 80 nM.

`Cc1c[nH]c(-c2cc(NC(=O)c3ccc(C(F)(F)F)nc3C)ccc2Cl)n1` [N-(4-chloro-3-(5-methyl-1H-imidazol-2-yl)phenyl)-2-methyl-6-(trifluoromethyl)nicotinamide] gave an IC50 of 256 nM.

`Cc1nc(C(F)(F)F)ccc1C(=O)Nc1ccc(Cl)c(-c2cn3ccsc3n2)c1` [N-(4-chloro-3-(imidazo[2,1-b]thiazol-6-yl)phenyl)-2-methyl-6-(trifluoromethyl)nicotinamide]: the IC50 is 200 nM.

`Cc1nc(C(F)(F)F)ccc1C(=O)Nc1ccc(Cl)c(-c2cc3ccccn3c2)c1` [N-(4-chloro-3-(indolizin-2-yl)phenyl)-2-methyl-6-(trifluoromethyl)nicotinamide]: the IC50 turned out to be 4200 nM.

Compound `Cc1nc(C(F)(F)F)ccc1C(=O)Nc1ccc(Cl)c(C(=O)Nc2ccccc2)c1` [N-(4-chloro-3-(phenylcarbamoyl)phenyl)-2-methyl-6-(trifluoromethyl)nicotinamide] yielded an IC50 of 140 nM.

`Cc1nc(C(F)(F)F)ccc1C(=O)Nc1ccc(Cl)c(-c2cnccn2)c1` [N-(4-chloro-3-(pyrazin-2-yl)phenyl)-2-methyl-6-(trifluoromethyl)nicotinamide] displayed an IC50 of 1700 nM. This IC50 lies about 12-fold higher than the previous one.

With `Cc1nc(C(F)(F)F)ccc1C(=O)Nc1ccc(Cl)c(-c2cc3ccccn3n2)c1` [N-(4-chloro-3-(pyrazolo[1,5-a]pyridin-2-yl)phenyl)-2-methyl-6-(trifluoromethyl)nicotinamide], half-maximal inhibition (IC50) was put at 170 nM.

Take `Cc1ccc(C(=O)Nc2ccc(Cl)c(-c3ccccn3)c2)c(C)n1` [N-(4-chloro-3-(pyridin-2-yl)phenyl)-2,6-dimethylnicotinamide]: it took 130 nM to reach half-maximal inhibition (IC50).

For `Cc1nc(C(F)(F)F)ccc1C(=O)Nc1ccc(Cl)c(-c2ccccn2)c1` [N-(4-chloro-3-(pyridin-2-yl)phenyl)-2-methyl-6-(trifluoromethyl)nicotinamide], the IC50 was determined as 42 nM.

Compound `CS(=O)(=O)c1cccc(C(=O)Nc2ccc(Cl)c(-c3ccccn3)c2)c1` [N-(4-chloro-3-(pyridin-2-yl)phenyl)-3-(methylsulfonyl)benzamide] registered an IC50 of 120 nM. Against the preceding compound, the IC50 is about 2.9-fold higher.

The compound `CS(=O)(=O)c1ccc(C(=O)Nc2ccc(Cl)c(-c3ccccn3)c2)cc1` [N-(4-chloro-3-(pyridin-2-yl)phenyl)-4-(methylsulfonyl)benzamide] registered an IC50 of 40 nM.

`O=C(Nc1ccc(Cl)c(-c2ccccn2)c1)c1ccccc1` [N-(4-chloro-3-(pyridin-2-yl)phenyl)benzamide]: the IC50 came out at 800 nM.

The compound `O=C(Nc1ccc(Cl)c(-c2ccccn2)c1)c1ccncc1` [N-(4-chloro-3-(pyridin-2-yl)phenyl)isonicotinamide] showed a 50% inhibitory concentration (IC50) of 700 nM.

On to `O=C(Nc1ccc(Cl)c(-c2ccccn2)c1)c1cccnc1` [N-(4-chloro-3-(pyridin-2-yl)phenyl)nicotinamide], for which half-maximal inhibition (IC50) was put at 600 nM.

In the case of `O=C(Nc1ccc(Cl)c(-c2ccccn2)c1)c1ccccn1` [N-(4-chloro-3-(pyridin-2-yl)phenyl)picolinamide], inhibition was half-maximal at 3000 nM (IC50).

Compound `Cc1nc(C(F)(F)F)ccc1C(=O)Nc1ccc(Cl)c(-c2cccnc2)c1` [N-(4-chloro-3-(pyridin-3-yl)phenyl)-2-methyl-6-(trifluoromethyl)nicotinamide] yielded an IC50 of 10000 nM.

In the case of `Cc1nc(C(F)(F)F)ccc1C(=O)Nc1ccc(Cl)c(-c2ccncc2)c1` [N-(4-chloro-3-(pyridin-4-yl)phenyl)-2-methyl-6-(trifluoromethyl)nicotinamide], the IC50 was 2400 nM.

`Cc1nc(C(F)(F)F)ccc1C(=O)Nc1ccc(Cl)c(-c2ncccn2)c1` [N-(4-chloro-3-(pyrimidin-2-yl)phenyl)-2-methyl-6-(trifluoromethyl)nicotinamide]: the IC50 came out at 8000 nM. Against the preceding compound, the IC50 is about 3.3-fold higher.

Compound `Cc1nc(C(F)(F)F)ccc1C(=O)Nc1ccc(Cl)c(-c2cnc3ccccc3n2)c1` [N-(4-chloro-3-(quinoxalin-2-yl)phenyl)-2-methyl-6-(trifluoromethyl)nicotinamide] had an IC50 of 52 nM.
